Key:
[1] = system: UPCI-SCC90-UP-Clone 35 (#90) cells; assay: MTT cell viability, HPV+ HNSCC cell line #90 with doxorubicin; type: cell-based; conditions: 2 μM doxorubicin
Protocol: FIGS. 8A-B includes graphs showing myricetin and spinacine (5) re-sensitized HPV^+, but not HPV^−, HNSCC cell lines to treatment with doxorubicin. One HPV^− (FIG. 8A; #84) and one HPV^+ (FIG. 8B; #90) head and neck cancer cell line (2×10^4 cells per well) were seeded into 96-well plates and allowed to incubate overnight, then cells were pre-treated with myricetin or spinacine (0-12.5 μM) for 4 h. 2 μM of doxorubicin was added and cells were allowed to incubate overnight. Cell viability was measured by MTT assay, and the viability of cells untreated with small molecules was set at 100%. Experiments were performed in triplicate, and error bars indicate the standard deviation.
The results described above indicate that myricetin and spinacine sensitize HPV^+ HNSCC cells to TRAIL-induced apoptosis. To determine whether this sensitization also occurs in the context of chemotherapeutic agents, several HNSCC cell lines were tested for their responses to combination treatments.
The extracellular domain of human TRAIL was cloned into a pTriEx expression plasmid containing N-terminal Hisx6 tag. His-TRAIL was expressed in the E. coli BL-21 pLys strain and purified as previously described. […] All experiments were repeated at least three times (three biological replicates, carried out on different days), with each experimental group measured in triplicate within each of these individual experiments. […]

[2] = molecular target: T1, GST-E6 (Human papillomavirus type 16, UniProt P03126); assay: Direct binding to E6 (FIG. 9); parameters: species or system HPV 16
T1 construct: made in house

[3] = Galli et al. 1989, 13-week oral study in rats, spinacine hydrochloride; cited from earlier work
[4] = molecular target: T2, GST-E6/His-caspase 8 (Human papillomavirus type 16, UniProt P03126); conditions: Yuan et al. 2012; cited from earlier work
T2 construct: made in house
T2 sequence (P03126 whole entry): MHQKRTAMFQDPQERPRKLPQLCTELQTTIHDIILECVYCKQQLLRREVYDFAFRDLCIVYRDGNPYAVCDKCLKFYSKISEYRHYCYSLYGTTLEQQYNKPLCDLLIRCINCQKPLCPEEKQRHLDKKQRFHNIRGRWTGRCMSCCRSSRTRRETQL

T1 sequence (P03126 whole entry): as above

| SMILES | cell death of HPV+ #90 cells with doxorubicin plus small molecule (in words) ([1]; small molecules 0-12.5 μM) | sensitization of #90 to doxorubicin ([1]; concentration of 12.5 μM) | binding to GST-E6 (in words) ([2]; FIG. 9) | N (binding stoichiometry) ([2]; spinacine binding to GST-E6, FIG. 9) | safety and tolerability (in words) [3] | inhibition of the E6/caspase 8 interaction in vitro (in words) [4] |
| --- | --- | --- | --- | --- | --- | --- |
| O=C(O)C1Cc2[nH]cnc2CN1 (stereo not drawn) [Compound 5, 4,5,6,7-Tetrahydro-1H-imidazo(4,5-c)pyridine-6-carboxylic acid] | higher efficiency than did myricetin | up to 50% | able to bind to GST-E6 | about 0.5 | safe, well-tolerated |  |
| O=c1c(O)c(-c2cc(O)c(O)c(O)c2)oc2cc(O)cc(O)c12 [Myricetin, reference compound] |  |  |  |  |  | can inhibit the E6/caspase 8 interaction in vitro |
